Test results reported in US7388017B2, “Inhibitors of serine proteases, particularly hepatitis C virus NS3 protease” (Vertex Pharmaceuticals Incorporated, priority 1996, dated 2008).
Read-outs that look alike come from different tables or passages of the source. Starred links: 1 amine or outer side, 2 acyl side, 3 side chain; linkers in the order of their positions; H or OH if unused. Non-standard residues stand in square brackets, D forms with d. Residues, ends and D or L forms follow the SMILES beside them. ξ: configuration not given here. *: point of attachment. ξ(3-Amino-2-oxopentanoyl) = CCC(N[*:1])C(=O)C(=O)[*:2]; X23 = CCC(N*)C(=O)c1ncc(-c2c(Cl)cccc2Cl)o1; Bip = N[CH](Cc1ccc(-c2ccccc2)cc1)C(=O)O; Acetyl(3-pyridyl) = O=C(Cc1cccnc1)*; Pyrazinecarbonyl = O=C(c1cnccn1)*; X41 = CCC(N*)C(=O)c1nc2ccccc2o1; 3Pal = N[CH](Cc1cccnc1)C(=O)O; NH(4-picolyl) = c1cc(CN*)ccn1; Hyp = O=C(O)[CH]1C[CH](O)CN1; NHPhenethyl = c1ccc(CCN*)cc1; Nicotinoyl = O=C(c1cccnc1)*; X44 = O=C(c1ccc2cnccc2n1)*; X12 = CCC(N*)C(=O)c1nccs1; Morpholide = C1CN(*)CCO1; Abu = CC[CH](N)C(=O)O; X8 = O=C(CCN1CCCCC1)*; NHBn = c1ccc(CN*)cc1; Glycolyl = O=C(CO)*; X13 = COc1ccccc1CN*; X16 = C1COC(CN*)C1; Bn = c1ccc(C*)cc1; X37 = COCC(C)N*; NHPr = CCCN*

Molecular target: T1, HCV NS3 protease (Hepatitis C virus genotype 1a, UniProt P27958)
T1 construct: more particularly HCV NS3 proteases
T1 sequence (P27958 1027-1208): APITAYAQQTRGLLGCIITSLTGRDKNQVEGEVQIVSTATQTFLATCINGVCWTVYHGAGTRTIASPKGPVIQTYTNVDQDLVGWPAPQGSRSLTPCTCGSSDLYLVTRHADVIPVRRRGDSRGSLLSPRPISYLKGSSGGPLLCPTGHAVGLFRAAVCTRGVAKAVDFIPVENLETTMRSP
Experiment: Enzyme inhibition of HCV NS3 serine protease (cleavage of peptide substrate / EDVV AbuC-p-nitroanilide, with or without NS4A)
Type: biochemical
Experimental: Cleavage reactions were quenched by the addition of an equal volume of a mixture of 10% TFA:acetonitrile (1:1) and activity was assessed on a reversed phase HPLC column (Rainin C18 Microsorb-MV, […], 4.6×250 mm; 0-50% acetonitrile, 0.1% TFA@ 3.33% min) using a Hewlett Packard 1050 instrument with auto-injection and diode array detection at 210 nm and 280 nm (where appropriate). Peptide elution fragments were collected and identified by mass spectrometry and N-terminal sequence analysis. Fragment identity and concentration was further verified by authentic, synthesized products. Initial rates of cleavage were determined at <20% substrate conversion and catalytic parameters were determined assuming Michaelis-Menten kinetics using the MultiFit program (Day Computing, Cambridge, Mass.).
Spectrophotometric assays were run in a 96-well microtiter plate at 30 C, using a SpectraMax 250 reader (Molecular Devices, Sunnyvale, Calif.) with kinetic capability. Cleavage of EDVV AbuC-p-nitroanilide (5A-pNA) substrate was performed with or without […] in the same buffer used for HPLC assays at 30 C, and pNA release was monitored at 405 nm. The extinction-coefficient of p-nitroaniline is independent of pH at values of 5.5. and above [Tuppy, H., et al., Hoppe-Seyler's Z. Physiol. Chem., 329, pp. 278-288 (1962)]; Raybuck and Luong, unpublished observations).
Kinetic constants for the rapid equilibrium ordered bisubstrate reaction were determined from rate vs [4A], [EDVV AbuC-pNA] data by non-linear least squares fitting to equation 1 [Morrison, J. F. Biochim. Biophys. Acta, 185, pp. 269-286 (1969)] as described in the text. Kii and Kis values for peptidyl inhibitors were determined from rate vs [inhibitor], [substrate] data and fitting to the equation for mixed inhibition: rate=Vmax[S]/{Km(1+[I]/Kis)+[S](1+[I]/Kii)} The commercial program KinetAsyst (StateCollege, Pa.) was used for both procedures. Ki values were calculated from rate vs [inhibitor] plots by a nonlinear least squares fit of the data to the equation of Morrison for tight binding competitive inhibition [Morrison, J. F. Biochim. Biophys. Acta, 185, pp. 269-286 (1969)]. The KineTic program (BioKin Ltd) was used for this procedure.
Ki values are expressed in μM. Category “A” indicates <1 μM inhibition; category “B” indicates 1-100 μM inhibition; category “C” indicates >100 μM.

[1] = Enzyme inhibition data, Ki from rate vs [inhibitor] plots, Morrison tight binding competitive inhibition fit, 30 C, pH 7.8, read-out: Ki

SMILES | Ki [1] [µM] | Ki [µM]
CCOC(=O)C(F)(F)C(=O)C(CC)NC(=O)C1CC(OCc2ccccc2)CN1C(=O)C(NC(=O)C(NC(=O)c1cnccn1)C(C)C)C(C)C (centres unmarked) [Compound 76] | > 100 | –
CCOP(=O)(OCC)C(CC)NC(=O)C1CC(OCc2ccccc2)CN1C(=O)C(NC(=O)C(NC(=O)c1cnccn1)C(C)C)C(C)C (centres unmarked) [Compound 77] | > 100 | –
CCC(NC(=O)C1CC(OCc2ccccc2)CN1C(=O)C(NC(=O)C(NC(=O)c1cnccn1)C(C)C)C(C)C)C(=O)C(=O)CCc1ccccc1 (centres unmarked) [Compound 78] | 1 to 100 | –
CCC(NC(=O)C1CC(OCc2ccccc2)CN1C(=O)C(NC(=O)C(NC(=O)c1cnccn1)C(C)C)C(C)C)C(=O)C(=O)NCCc1ccccc1 (centres unmarked) [Compound 79] | 1 to 100 | –
CCC(C=O)NC(=O)C1CC(OCc2ccccc2)CN1C(=O)C(NC(=O)C(NC(C)=O)C(C)C)C(C)C (centres unmarked) [Compound 81] (Ac-VV[Hyp](Bn)[Abu]-aldehyde; configuration not given here) | 1 to 100 | –
CCC(C=O)NC(=O)C1CC(OCc2ccccc2)CN1C(=O)C(NC(=O)C(NC(=O)CO)C(C)C)C(C)C (centres unmarked) [Compound 82] (Glycolyl-VV[Hyp](Bn)[Abu]-aldehyde; configuration not given here) | 1 to 100 | –
CCC(C=O)NC(=O)C(CC(C)C)NC(=O)C(NC(=O)C(NC(=O)c1ccc2cnccc2n1)C(C)C)C(C)C (centres unmarked) [Compound 89] (X44-VVL[Abu]-aldehyde; configuration not given here) | 1 to 100 | –
CCC(C=O)NC(=O)C(CC(C)C)NC(=O)C(NC(=O)C(NC(=O)c1cccnc1)C(C)C)C(C)C (centres unmarked) [Compound 94] (Nicotinoyl-VVL[Abu]-aldehyde; configuration not given here) | 1 to 100 | –
CCC(C=O)NC(=O)C(CC(C)C)NC(=O)C(NC(=O)C(NC(=O)Cc1cccnc1)C(C)C)C(C)C (centres unmarked) [Compound 95] ({Acetyl(3-pyridyl)}-VVL[Abu]-aldehyde; configuration not given here) | 1 to 100 | –
CCC(C=O)NC(=O)C(CC(C)C)NC(=O)C(NC(=O)C(NC(=O)CCN1CCCCC1)C(C)C)C(C)C (centres unmarked) [Compound 97] (X8-VVL[Abu]-aldehyde; configuration not given here) | 1 to 100 | –
CCC(NC(=O)C(CC(C)C)NC(=O)C(NC(=O)C(NC(=O)C(CC(=O)O)NC(=O)C(CCC(=O)O)NC(C)=O)C(C)C)C(C)C)C(=O)C(=O)O (centres unmarked) [Compound 101] (Ac-EDVVL-{ξ(3-Amino-2-oxopentanoyl)}; configuration not given here) | < 1 | –
CCC(NC(=O)C(CC(C)C)NC(=O)C(NC(=O)C(NC(=O)C(CC(=O)O)NC(=O)C(CCC(=O)O)NC(C)=O)C(C)C)C(C)C)C(=O)C(=O)NCc1ccccc1 (centres unmarked) [Compound 102] (Ac-EDVVL[ξ(3-Amino-2-oxopentanoyl)]-NHBn; configuration not given here) | < 1 | –
CCC(NC(=O)C(CC(C)C)NC(=O)C(NC(=O)C(NC(=O)C(CC(=O)O)NC(=O)C(CCC(=O)O)NC(C)=O)C(C)C)C(C)C)C(=O)C(=O)NCc1ccccc1OC (centres unmarked) [Compound 103] (Ac-EDVVL[ξ(3-Amino-2-oxopentanoyl)]-X13; configuration not given here) | < 1 | –
CCC(NC(=O)C(CC(C)C)NC(=O)C(NC(=O)C(NC(=O)C(CC(=O)O)NC(=O)C(CCC(=O)O)NC(C)=O)C(C)C)C(C)C)C(=O)C(=O)NCCc1ccccc1 (centres unmarked) [Compound 104] (Ac-EDVVL[ξ(3-Amino-2-oxopentanoyl)]-NHPhenethyl; configuration not given here) | < 1 | –
CCCNC(=O)C(=O)C(CC)NC(=O)C(CC(C)C)NC(=O)C(NC(=O)C(NC(=O)C(CC(=O)O)NC(=O)C(CCC(=O)O)NC(C)=O)C(C)C)C(C)C (centres unmarked) [Compound 105] (Ac-EDVVL[ξ(3-Amino-2-oxopentanoyl)]-NHPr; configuration not given here) | < 1 | –
CCC(NC(=O)C(CC(C)C)NC(=O)C(NC(=O)C(NC(=O)C(CC(=O)O)NC(=O)C(CCC(=O)O)NC(C)=O)C(C)C)C(C)C)C(=O)C(=O)NC(C)COC (centres unmarked) [Compound 106] (Ac-EDVVL[ξ(3-Amino-2-oxopentanoyl)]-X37; configuration not given here) | < 1 | –
CCC(NC(=O)C(CC(C)C)NC(=O)C(NC(=O)C(NC(=O)C(CC(=O)O)NC(=O)C(CCC(=O)O)NC(C)=O)C(C)C)C(C)C)C(=O)C(=O)NCc1ccncc1 (centres unmarked) [Compound 107] (Ac-EDVVL[ξ(3-Amino-2-oxopentanoyl)]-{NH(4-picolyl)}; configuration not given here) | < 1 | –
CCC(NC(=O)C(CC(C)C)NC(=O)C(NC(=O)C(NC(=O)C(CC(=O)O)NC(=O)C(CCC(=O)O)NC(C)=O)C(C)C)C(C)C)C(=O)C(=O)NCC1CCCO1 (centres unmarked) [Compound 108] (Ac-EDVVL[ξ(3-Amino-2-oxopentanoyl)]-X16; configuration not given here) | < 1 | –

SMILES | Ki [1] [µM] | Ki [µM]
CCC(NC(=O)C(CC(C)C)NC(=O)C(NC(=O)C(NC(=O)C(CC(=O)O)NC(=O)C(CCC(=O)O)NC(C)=O)C(C)C)C(C)C)C(=O)C(=O)N1CCOCC1 (centres unmarked) [Compound 109] (Ac-EDVVL[ξ(3-Amino-2-oxopentanoyl)]-Morpholide; configuration not given here) | 1 to 100 | –
CCC(NC(=O)C(CC(C)C)NC(=O)C(NC(=O)C(NC(=O)c1cnccn1)C(C)C)C(C)C)C(=O)C(=O)NCc1ccccc1 (centres unmarked) [Compound 112] | 1 to 100 | –
CCC(NC(=O)C(CC(C)C)NC(=O)C(NC(=O)C(NC(=O)c1cnccn1)C(C)C)C(C)C)C(=O)C(=O)NCCc1ccc(OCc2ccccc2)c(OCc2ccccc2)c1 (centres unmarked) [Compound 113] | 1 to 100 | –
CCC(NC(=O)C(CC(C)C)NC(=O)C(NC(=O)C(NC(=O)c1cnccn1)C(C)C)C(C)C)C(=O)C(=O)NCc1ccccc1OC (centres unmarked) [Compound 114] | > 100 | –
CCC(NC(=O)C(CC(C)C)NC(=O)C(NC(=O)C(NC(=O)c1cnccn1)C(C)C)C(C)C)C(=O)C(=O)NCCc1ccccc1 (centres unmarked) [Compound 115] | 1 to 100 | –
CCC(NC(=O)C(CC(C)C)NC(=O)C(NC(=O)C(NC(=O)c1cnccn1)C(C)C)C(C)C)C(=O)C(=O)N[C@H](C)c1ccccc1 (some centres unmarked) [Compound 116] | 1 to 100 | –
CCC(NC(=O)C(CC(C)C)NC(=O)C(NC(=O)C(NC(=O)c1cnccn1)C(C)C)C(C)C)C(=O)C(=O)N[C@@H](C)c1ccccc1 (some centres unmarked) [Compound 117] | 1 to 100 | –
CCC(NC(=O)C(CC(C)C)NC(=O)C(NC(=O)C(NC(=O)c1cnccn1)C(C)C)C(C)C)C(=O)C(=O)Nc1ccccc1 (centres unmarked) [Compound 119] | > 100 | –
CCC(NC(=O)C(CC(C)C)NC(=O)C(NC(=O)C(NC(=O)c1cnccn1)C(C)C)C(C)C)C(=O)C(=O)N[C@H](CC)c1ccccc1 (some centres unmarked) [Compound 120] | – | 1 to 100
CCC(NC(=O)C(CC(C)C)NC(=O)C(NC(=O)C(NC(=O)c1cnccn1)C(C)C)C(C)C)C(=O)C(=O)N[C@@H](CC)c1ccccc1 (some centres unmarked) [Compound 121] | – | > 100
CCC(NC(=O)C(CC(C)C)NC(=O)C(NC(=O)C(NC(=O)c1cnccn1)C(C)C)C(C)C)C(=O)C(=O)N(CC)CC (centres unmarked) [Compound 122] | > 100 | –
CCC(NC(=O)C(CC(C)C)NC(=O)C(NC(=O)C(NC(=O)c1cnccn1)C(C)C)C(C)C)C(=O)C(=O)NCC(C)OC (centres unmarked) [Compound 123] | 1 to 100 | –
CCC(NC(=O)C(CC(C)C)NC(=O)C(NC(=O)C(NC(=O)C(CC(=O)O)NC(=O)C(N)CCC(=O)O)C(C)C)C(C)C)C(=O)c1nc2ccccc2o1 (centres unmarked) [Compound 124] (H-EDVVL-X41; configuration not given here) | 1 to 100 | –
CCC(NC(=O)C(CC(C)C)NC(=O)C(NC(=O)C(NC(=O)C(CC(=O)O)NC(=O)C(N)CCC(=O)O)C(C)C)C(C)C)C(=O)c1nccs1 (centres unmarked) [Compound 125] (H-EDVVL-X12; configuration not given here) | 1 to 100 | –
CCC(NC(=O)C(CC(C)C)NC(=O)C(NC(=O)C(NC(=O)C(CC(=O)O)NC(=O)C(N)CCC(=O)O)C(C)C)C(C)C)C(=O)c1ncc(-c2c(Cl)cccc2Cl)o1 (centres unmarked) [Compound 126] (H-EDVVL-X23; configuration not given here) | > 100 | –
CCC(C=O)NC(=O)C1CC(OCc2ccccc2)CN1C(=O)C(NC(=O)C(Cc1cccnc1)NC(=O)c1cnccn1)C(C)C (centres unmarked) [Compound 127] (Pyrazinecarbonyl-[3Pal]V[Hyp](Bn)[Abu]-aldehyde; configuration not given here) | > 100 | –
CCC(C=O)NC(=O)C1CC(OCc2ccccc2)CN1C(=O)C(NC(=O)C(Cc1ccc(-c2ccccc2)cc1)NC(=O)c1cnccn1)C(C)C (centres unmarked) [Compound 130] (Pyrazinecarbonyl-[Bip]V[Hyp](Bn)[Abu]-aldehyde; configuration not given here) | > 100 | –
